Laboratory results reported in paper PMC3726442 (PLoS ONE, 2013).

Assays:
[1] = cited from earlier work
estrogen receptor = conditions: cited from earlier work
[2] = Plasma concentrations of tamoxifen and its metabolites in breast cancer patients on tamoxifen, by HPLC-tandem mass spectrometry
Excerpt: One hundred and thirty five Caucasian patients of Spanish descent recently diagnosed with BC were recruited from the center Fundación Tejerina-Centro de Patología de la Mama (Madrid). Premenopausal and postmenopausal women were enrolled when started on TAM as standard adjuvant therapy after undergoing primary surgery, radiation and adjuvant chemotherapy. Patients were excluded if they had started TAM therapy simultaneously with either adjuvant chemotherapy or adjuvant radiation therapy (or both) or if they were undergoing other adjuvant endocrine therapies. Patients who were pregnant or breast-feeding were also excluded from the study. […] Blood samples were collected within 3 to 60 months of initiating TAM treatment.
Venous blood was collected from all 135 subjects before taking their daily 20- mg dose of TAM. Ten milliliters of heparin plasma were separated by centrifugation and immediately stored at −20°C until analysis. In addition, one milliliter of an EDTA blood sample was taken for subsequent DNA extraction and genotyping. DNA was isolated from peripheral leukocytes using a QIAamp DNA Blood Mini Kit® (Qiagen, Madrid, Spain) according to the manufacturer’s instructions. The DNA concentration was determined and adjusted to 2–20 ng/ µL.
TAM and its metabolites were separated and quantified by high-pressure liquid chromatography-tandem mass spectrometry using an Agilent HPLC 1200 system. HPLC experiments were performed using a binary pump G1312A, a G1316A column oven, G1379B degasser and an automatic injector H-ALS G1367B. Mobile phase A and phase B consisted of 0.1% formic acid in water and acetonitrile, respectively. Mobile phases A and B were pumped through a ZORBAX Eclipse XDB-C18 column (150 mm×2.1 mm I.D., 3.5 µm, Agilent USA) at a flow rate of 0.2 mL/min using the gradient shown in Table 1. Separation was conducted at 30°C. 15- µL aliquots were injected and the autosampler needle was rinsed in acetonitrile/water solution (1∶1). The total run time was 20 min. During the first 4.0 and last 2.0 min, the eluate was removed using a divert valve to avoid endogenous compounds entering the mass spectrometer.
As a detector, we used an A 6410 Triple Quadrupole mass spectrometer (Agilent Technologies, USA) equipped with a heated electrospray ionization source (Thermo Fisher Scientific, Waltham, MA, USA) operating in positive ion mode. For quantification, multiple reaction monitoring (MRM) chromatograms were acquired using Mass Hunter software version B.01.04 (Agilent Technologies, USA). Positive ions were created at atmospheric pressure. Quadrupoles operated at unit resolution (0.7 Da).
A 300- µL volume of 1% formic acid in acetonitrile containing internal standards was added to a 100- µL serum aliquot. After vortexing and centrifugation, the clear supernatant was transferred to a HybridSPE column (Supelco) and the eluents stored at 2–8°C until analysis. Samples were analyzed in triplicate.
Descriptive statistics were calculated using standard methods. Metabolic ratios were calculated as the concentration of substrate/concentration of metabolite. The non-normal distribution of data was confirmed by the Kolmogorov-Smirnov test. Levels of TAM, metabolites and ratios between genotype groups were compared using Wilcoxon-Mann-Whitney or Kruskal-Wallis tests. All statistical tests (two-sided) were performed using SPSS software (version 18.0 SPSS, Chicago, IL). Significance was set at a p<0.05.

[3] = all samples analyzed, n = 125, before daily 20 mg TAM dose

CC/C(=C(\c1ccc(O)cc1)c1ccc(OCCNC)cc1)c1ccccc1 [Endoxifen, N-desmethyl-4-hydroxy-tamoxifen]
serum levels relative to 4OH-TAM [1]: 10 fold
estrogen receptor affinity relative to TAM (estrogen receptor): 100 fold
endoxifen levels in wt/wt CYP2D6 relative to v/v CYP2D6 patients ([2]; CYP2D6 genotype subgroups, Figure 1): over two-fold
mean plasma concentration (±SD) [2, 3]: 24.75 ± 19.37 ng/mL
median plasma concentration [2, 3]: 19.11 ng/mL
mean concentration relative to the 4OH-TAM mean concentration ([2]; all samples, n = 125): almost three times
plasma concentration, mean ±SD ([2]; genotype CYP2D6 I/I, n = 1): 9.53 ± 0.00 ng/mL
plasma concentration, median ([2]; genotype CYP2D6 I/I, n = 1): 9.53 ng/mL
plasma concentration, range ([2]; genotype CYP2D6 I/I, n = 1): (9.53–9.53) ng/mL
plasma concentration, mean ±SD ([2]; genotype CYP2D6 I/P, n = 8): 12.01 ± 5.84 ng/mL
plasma concentration, median ([2]; genotype CYP2D6 I/P, n = 8): 10.00 ng/mL
plasma concentration, range ([2]; genotype CYP2D6 I/P, n = 8): (4.46–21.02) ng/mL
plasma concentration, mean ±SD ([2]; genotype CYP2D6 P/P, n = 2): 8.71 ± 6.41 ng/mL
plasma concentration, median ([2]; genotype CYP2D6 P/P, n = 2): 8.71 ng/mL
plasma concentration, range ([2]; genotype CYP2D6 P/P, n = 2): (4.18–13.24) ng/mL
plasma concentration, mean ±SD ([2]; genotype CYP2D6 wt/I, n = 4): 26.87 ± 17.31 ng/mL
plasma concentration, median ([2]; genotype CYP2D6 wt/I, n = 4): 20.64 ng/mL
plasma concentration, range ([2]; genotype CYP2D6 wt/I, n = 4): (14.01–52.20) ng/mL
plasma concentration, mean ±SD ([2]; genotype CYP2D6 wt/P, n = 26): 23.76 ± 25.21 ng/mL
plasma concentration, median ([2]; genotype CYP2D6 wt/P, n = 26): 14.57 ng/mL
plasma concentration, range ([2]; genotype CYP2D6 wt/P, n = 26): (5.01–107.10) ng/mL
plasma concentration, mean ±SD ([2]; genotype CYP2D6 wt/wt, n = 78): 26.47 ± 17.89 ng/mL
plasma concentration, median ([2]; genotype CYP2D6 wt/wt, n = 78): 21.21 ng/mL
plasma concentration, range ([2]; genotype CYP2D6 wt/wt, n = 78): (4.03–95.87) ng/mL
plasma concentration, mean ±SD ([2]; genotype CYP2D6 wtxN/P, n = 2): 36.09 ± 32.08 ng/mL
plasma concentration, median ([2]; genotype CYP2D6 wtxN/P, n = 2): 36.09 ng/mL
plasma concentration, range ([2]; genotype CYP2D6 wtxN/P, n = 2): (13.40–58.77) ng/mL
plasma concentration, mean ±SD ([2]; genotype CYP3A4 wt/*1B, n = 3): 22.31 ± 10.86 ng/mL
plasma concentration, median ([2]; genotype CYP3A4 wt/*1B, n = 3): 26.69 ng/mL
plasma concentration, range ([2]; genotype CYP3A4 wt/*1B, n = 3): (9.95–30.30) ng/mL
plasma concentration, mean ±SD ([2]; genotype CYP3A4 wt/*3, n = 2): 49.15 ± 21.86 ng/mL
plasma concentration, median ([2]; genotype CYP3A4 wt/*3, n = 2): 49.15 ng/mL
plasma concentration, range ([2]; genotype CYP3A4 wt/*3, n = 2): (33.69–64.61) ng/mL
plasma concentration, mean ±SD ([2]; genotype CYP3A4 wt/*17, n = 9): 19.86 ± 24.88 ng/mL
plasma concentration, median ([2]; genotype CYP3A4 wt/*17, n = 9): 11.94 ng/mL
plasma concentration, range ([2]; genotype CYP3A4 wt/*17, n = 9): (4.46–84.57) ng/mL
plasma concentration, mean ±SD ([2]; genotype CYP3A4 wt/wt, n = 107): 24.80 ± 19.03 ng/mL
plasma concentration, median ([2]; genotype CYP3A4 wt/wt, n = 107): 19.12 ng/mL
plasma concentration, range ([2]; genotype CYP3A4 wt/wt, n = 107): (4.03–107.10) ng/mL
plasma concentration, mean ±SD ([2]; genotype CYP3A5 *3/*3, n = 117): 25.10 ± 19.66 ng/mL
plasma concentration, median ([2]; genotype CYP3A5 *3/*3, n = 117): 19.12 ng/mL
plasma concentration, range ([2]; genotype CYP3A5 *3/*3, n = 117): (4.03–107.10) ng/mL
plasma concentration, mean ±SD ([2]; genotype CYP3A5 wt/*3, n = 6): 14.14 ± 7.56 ng/mL
plasma concentration, median ([2]; genotype CYP3A5 wt/*3, n = 6): 13.61 ng/mL
plasma concentration, range ([2]; genotype CYP3A5 wt/*3, n = 6): (5.40–23.01) ng/mL
plasma concentration, mean ±SD ([2]; genotype SULT1A1 *2/*2, n = 15): 28.68 ± 24.18 ng/mL
plasma concentration, median ([2]; genotype SULT1A1 *2/*2, n = 15): 19.82 ng/mL
plasma concentration, range ([2]; genotype SULT1A1 *2/*2, n = 15): (4.57–95.87) ng/mL
plasma concentration, mean ±SD ([2]; genotype SULT1A1 wt/*2, n = 46): 26.59 ± 19.97 ng/mL
plasma concentration, median ([2]; genotype SULT1A1 wt/*2, n = 46): 22.58 ng/mL
plasma concentration, range ([2]; genotype SULT1A1 wt/*2, n = 46): (4.18–107.10) ng/mL
plasma concentration, mean ±SD ([2]; genotype SULT1A1 wt/wt, n = 60): 22.43 ± 17.79 ng/mL
plasma concentration, median ([2]; genotype SULT1A1 wt/wt, n = 60): 17.47 ng/mL
plasma concentration, range ([2]; genotype SULT1A1 wt/wt, n = 60): (4.03–89.98) ng/mL
plasma concentration, mean ±SD ([2]; genotype SULT1A2 *2/*2, n = 16): 26.59 ± 23.20 ng/mL
plasma concentration, median ([2]; genotype SULT1A2 *2/*2, n = 16): 20.76 ng/mL
plasma concentration, range ([2]; genotype SULT1A2 *2/*2, n = 16): (4.18–95.87) ng/mL
plasma concentration, mean ±SD ([2]; genotype SULT1A2 *2/*3, n = 13): 34.61 ± 20.35 ng/mL
plasma concentration, median ([2]; genotype SULT1A2 *2/*3, n = 13): 32.02 ng/mL
plasma concentration, range ([2]; genotype SULT1A2 *2/*3, n = 13): (8.94–74.06) ng/mL
plasma concentration, mean ±SD ([2]; genotype SULT1A2 *3/*3, n = 5): 27.34 ± 21.30 ng/mL
plasma concentration, median ([2]; genotype SULT1A2 *3/*3, n = 5): 21.02 ng/mL
plasma concentration, range ([2]; genotype SULT1A2 *3/*3, n = 5): (12.13–64.61) ng/mL
plasma concentration, mean ±SD ([2]; genotype SULT1A2 wt/*2, n = 33): 28.84 ± 23.78 ng/mL
plasma concentration, median ([2]; genotype SULT1A2 wt/*2, n = 33): 23.22 ng/mL
plasma concentration, range ([2]; genotype SULT1A2 wt/*2, n = 33): (4.46–107.10) ng/mL
plasma concentration, mean ±SD ([2]; genotype SULT1A2 wt/*3, n = 16): 23.99 ± 15.32 ng/mL
plasma concentration, median ([2]; genotype SULT1A2 wt/*3, n = 16): 19.02 ng/mL
plasma concentration, range ([2]; genotype SULT1A2 wt/*3, n = 16): (7.80–51.61) ng/mL
plasma concentration, mean ±SD ([2]; genotype SULT1A2 wt/wt, n = 38): 17.21 ± 11.79 ng/mL
plasma concentration, median ([2]; genotype SULT1A2 wt/wt, n = 38): 14.78 ng/mL
plasma concentration, range ([2]; genotype SULT1A2 wt/wt, n = 38): (4.03–58.77) ng/mL
plasma concentration, mean ±SD ([2]; genotype SULT1E1 *2/*2, n = 5): 16.05 ± 8.07 ng/mL
plasma concentration, median ([2]; genotype SULT1E1 *2/*2, n = 5): 20.60 ng/mL
plasma concentration, range ([2]; genotype SULT1E1 *2/*2, n = 5): (6.74–23.01) ng/mL
plasma concentration, mean ±SD ([2]; genotype SULT1E1 wt/*2, n = 28): 24.30 ± 20.87 ng/mL
plasma concentration, median ([2]; genotype SULT1E1 wt/*2, n = 28): 18.04 ng/mL
plasma concentration, range ([2]; genotype SULT1E1 wt/*2, n = 28): (4.18–95.87) ng/mL
plasma concentration, mean ±SD ([2]; genotype SULT1E1 wt/wt, n = 88): 25.41 ± 19.51 ng/mL
plasma concentration, median ([2]; genotype SULT1E1 wt/wt, n = 88): 19.12 ng/mL
plasma concentration, range ([2]; genotype SULT1E1 wt/wt, n = 88): (4.03–107.10) ng/mL
mean plasma concentration (±SD) ([2]; patients not receiving CYP2D6 inhibitors): 25.30 ± 19.39 ng/mL
mean plasma concentration (±SD) ([2]; patients receiving CYP2D6 inhibitors concomitantly with TAM): 15.55 ± 17.77 ng/mL

CC/C(=C(\c1ccccc1)c1ccc(OCC[N+](C)(C)[O-])cc1)c1ccccc1 [Tamoxifen-N-oxide, tamoxifen-N-oxide]
mean plasma concentration (±SD) [2, 3]: 50.88 ± 23.09 ng/mL
plasma concentration, mean ±SD ([2]; genotype CYP2D6 wt/P, n = 26): 54.04 ± 25.63 ng/mL
plasma concentration, mean ±SD ([2]; genotype SULT1A1 *2/*2, n = 15): 56.02 ± 24.50 ng/mL
plasma concentration, median ([2]; genotype SULT1A1 *2/*2, n = 15): 59.27 ng/mL
plasma concentration, range ([2]; genotype SULT1A1 *2/*2, n = 15): (15.69–99.37) ng/mL
plasma concentration, mean ±SD ([2]; genotype SULT1A1 wt/*2, n = 46): 51.02 ± 27.88 ng/mL
plasma concentration, median ([2]; genotype SULT1A1 wt/*2, n = 46): 41.84 ng/mL
plasma concentration, range ([2]; genotype SULT1A1 wt/*2, n = 46): (17.43–142.97) ng/mL
plasma concentration, mean ±SD ([2]; genotype SULT1A1 wt/wt, n = 60): 48.69 ± 18.93 ng/mL
plasma concentration, range ([2]; genotype SULT1A1 wt/wt, n = 60): (15.69–106.35) ng/mL
plasma concentration, mean ±SD ([2]; genotype SULT1A2 *2/*2, n = 16): 47.18 ± 20.97 ng/mL
plasma concentration, median ([2]; genotype SULT1A2 *2/*2, n = 16): 50.56 ng/mL
plasma concentration, range ([2]; genotype SULT1A2 *2/*2, n = 16): (15.69–81.94) ng/mL
plasma concentration, mean ±SD ([2]; genotype SULT1A2 *2/*3, n = 13): 46.94 ± 17.33 ng/mL
plasma concentration, range ([2]; genotype SULT1A2 *2/*3, n = 13): (17.43–90.66) ng/mL
plasma concentration, mean ±SD ([2]; genotype SULT1A2 *3/*3, n = 5): 38.35 ± 10.17 ng/mL
plasma concentration, range ([2]; genotype SULT1A2 *3/*3, n = 5): (26.15–50.56) ng/mL
plasma concentration, mean ±SD ([2]; genotype SULT1A2 wt/*2, n = 33): 60.87 ± 31.96 ng/mL
plasma concentration, median ([2]; genotype SULT1A2 wt/*2, n = 33): 54.04 ng/mL
plasma concentration, range ([2]; genotype SULT1A2 wt/*2, n = 33): (20.53–142.97) ng/mL
plasma concentration, mean ±SD ([2]; genotype SULT1A2 wt/*3, n = 16): 47.29 ± 17.70 ng/mL
plasma concentration, median ([2]; genotype SULT1A2 wt/*3, n = 16): 46.20 ng/mL
plasma concentration, range ([2]; genotype SULT1A2 wt/*3, n = 16): (19.18–83.68) ng/mL
plasma concentration, mean ±SD ([2]; genotype SULT1A2 wt/wt, n = 38): 47.65 ± 19.19 ng/mL
plasma concentration, median ([2]; genotype SULT1A2 wt/wt, n = 38): 42.71 ng/mL
plasma concentration, range ([2]; genotype SULT1A2 wt/wt, n = 38): (15.69–99.37) ng/mL
plasma concentration, mean ±SD ([2]; genotype SULT1E1 *2/*2, n = 5): 49.86 ± 8.94 ng/mL
plasma concentration, mean ±SD ([2]; genotype SULT1E1 wt/*2, n = 28): 47.65 ± 19.38 ng/mL
plasma concentration, median ([2]; genotype SULT1E1 wt/*2, n = 28): 47.94 ng/mL
plasma concentration, range ([2]; genotype SULT1E1 wt/*2, n = 28): (20.53–90.66) ng/mL
plasma concentration, mean ±SD ([2]; genotype SULT1E1 wt/wt, n = 88): 51.48 ± 25.13 ng/mL
plasma concentration, range ([2]; genotype SULT1E1 wt/wt, n = 88): (15.69–142.97) ng/mL
